# Structures can show the parent of a compound that is named as a salt. Where two headings read alike, the source gives them in different places.
# Experiments:
# [1] = tested on: T. cruzi intracellular amastigotes; experiment: T. cruzi intracellular amastigote image-based assay; format: cell-based, Trypanosoma cruzi; conditions: for IC50: Trypanosoma cruzi, intracellular amastigotes, n = 2, top 18.3 µM, read-out: IC50 (mean ± SD), T. cruzi
# Procedure: (§1) For the primary screen, compounds were prepared as a stock concentration of 5 mM in 100% DMSO and tested in duplicate points for two independent experiments (n = 2) at final assay concentrations of 20 µM and 16.7 µM for the L. donovani intracellular amastigote and promastigote viability assays, respectively. Primary screening against T. b. brucei was undertaken at 5 µM and for T. cruzi at 10 µM final concentrations. […] These compounds were then retested in a 14 point format to determine the IC50 value against the parasite, and against HEK-293, THP-1 and 3T3 cells to determine the selectivity to the parasite. […] A top dose of 20 µM was used in the T. b. brucei assay and 18.3 µM for T.cruzi assay, in 14 point dose repsonse curves as described.
# (§2) The efficacy of compounds against T. cruzi was undertaken using a phenotypic, high-throughput image-based assay as previously described.
# 3T3 host cells [2] = experiment: 3T3 host cell cytotoxicity (selectivity); format: cell-based, mouse; conditions: relative to T. cruzi
# Procedure: (§3) Primary screening against T. b. brucei was undertaken at 5 µM and for T. cruzi at 10 µM final concentrations.
# as §2
# P. falciparum (3D7) = conditions: read-out: IC50, chloroquine-sensitive (3D7) P. falciparum; cited from earlier work
# [3] = tested on: T. b. brucei bloodstream form strain 427; experiment: T. b. brucei resazurin viability assay; format: cell-based, Trypanosoma brucei brucei; conditions: for IC50: Trypanosoma brucei, n = 2, 14 point dose response, top 20 µM, read-out: IC50 (mean ± SD), T. b. brucei
# Procedure: as §1
# The efficacy of compounds against T. b. brucei bloodstream form was evaluated using a resazurin-based assay, previously described in the literature.
# HEK-293 cells = experiment: HEK-293 resazurin viability assay (cytotoxicity, selectivity); format: cell-based, human
# Procedure: as §3
# Cytotoxicity testing was undertaken as previously described.
# malaria infection = tested on: malaria infection; design: method as in PMID 25490858; conditions: mouse, oral administration; cited from earlier work
# P. falciparum (Dd2) = conditions: read-out: IC50, multi-drug resistant (Dd2) P. falciparum; cited from earlier work
# [4] = tested on: L. donovani DD8 promastigotes; experiment: L. donovani DD8 promastigote viability assay (resazurin); format: cell-based, Leishmania donovani; conditions: Leishmania donovani; at 16.7 µM
# Procedure: as §1
# This assay was established to assess the activity of the compound library on the extracellular form of the parasites. An initial cell density of 1 × 10^5 parasites/mL was inoculated into a 75 cm^2 flask (in a total of 30 mL of M199 medium + 10% (v/v) HIFBS) and incubated at 27 °C. After 96 h the parasites reached the mid-log phase and were seeded in black, clear bottom 384-well plates (Greiner-bio-one®, Monroe, UT, USA) at a concentration of 5 × 10^5 parasites/mL in a volume of 55 µL using a Bravo automated liquid handling platform (Agilent, Santa Clara, CA, USA). Compound stocks were diluted 1:25 in M199 media without HIFBS using a dilution plate (Greiner-bio-one®, Monroe, UT, USA). The compounds were dispensed in 5 µL using a Bravo and parasites incubated for an additional 68 h at 27 °C. Resazurin (Cayman Chemicals®, Ann Arbor, MI, USA) at 0.142 mM final assay concentration was then dispensed into plates at a volume of 10 µL/well using a Multidrop™ 384 Reagent Dispenser (Thermo Scientific®, Newington, NH, USA) and incubated at 27 °C. The plates were read after 4 h on an EnVision™ Multilabel plate reader (PerkinElmer, Waltham, MA, USA) using fluorometry with an excitation of 530 nm and emission 590 nm. For the L. donovani DD8 promastigote viability assay, 1 µM of amphotericin B was used as positive control and 0.4% DMSO as negative control.
# 3T3 host cells [5] = tested on: 3T3 host cells; design: method as in PMID 25033456; conditions: relative to T. cruzi; cited from earlier work
# T. cruzi [6] = tested on: T. cruzi; design: method as in PMID 25033456; conditions: cited from earlier work
# T. b. brucei [7] = tested on: T. b. brucei; design: method as in PMID 20696141; conditions: cited from earlier work
# T. b. brucei variant 221 = conditions: cited from earlier work
# [8] = tested on: L. mexicana intracellular amastigotes; design: method as in PMID 15679330; conditions: at 41.89 µM; cited from earlier work
# THP-1 cells = experiment: THP-1 cytotoxicity (selectivity); format: cell-based, human; conditions: relative to L. donovani DD8 intracellular amastigotes
# Procedure: as §1
# [9] = tested on: L. donovani (MHOM/SD/62/1S-CL2D) axenic amastigotes; design: method as in PMID 15679330; conditions: strain MHOM/SD/62/1S-CL2D; cited from earlier work
# [10] = tested on: L. donovani DD8 intracellular amastigotes; experiment: L. donovani DD8 intracellular amastigote high content imaging assay; format: cell-based, Leishmania donovani; conditions: Leishmania donovani; n = 2; 14 point dose response, top 20 µM; read-out: IC50 (mean ± SD), L. donovani DD8 intracellular amastigotes
# Procedure: as §1
# A high content, high-throughput imaging assay was used to identify compounds active against L. donovani DD8 intracellular amastigotes as described previosuly.
# T. b. brucei [11] = tested on: T. b. brucei; design: method as in PMID 18833031; conditions: cited from earlier work
# T. b. rhodesiense = tested on: T. b. rhodesiense; design: method as in PMID 28498323; conditions: cited from earlier work
# T. cruzi [12] = tested on: T. cruzi; design: method as in PMID 28498323; conditions: cited from earlier work
# [13] = tested on: NF54 strain of Plasmodium falciparum; design: method as in PMID 28498323; conditions: read-out: IC50, P. falciparum NF54; cited from earlier work
# L. donovani = tested on: L. donovani; design: method as in PMID 28498323; conditions: cited from earlier work
# L. donovani DD8 = tested on: L. donovani DD8; design: method as in PMID 7592170; conditions: compared to other strains; cited from earlier work
compound,measurement,setting,value
"NCCc1c[nH]c2c1C(=O)C1=C(NC=CS1(=O)=O)C2=O [Compound 3, Thiaplakortone A]",IC50,[1],4.26 ± 0.65 µM
same,Selectivity index (SI) compared to 3T3 cells,3T3 host cells [2],1.06
same,IC50,P. falciparum (3D7),0.051 µM
same,IC50,[3],3.94 ± 0.78 µM
same,Selectivity index (SI) compared to HEK-293 cells,HEK-293 cells; relative to T. b. brucei,0.70
same,Selectivity index (SI) compared to HEK-293 cells,HEK-293 cells; relative to T. cruzi,0.53
same,suppression of parasitemia,malaria infection,did not suppress parasitemia
same,IC50,P. falciparum (Dd2),0.0066 µM
"OC(c1cc(C(F)(F)F)nc2c(C(F)(F)F)cccc12)C1CCCCN1 (stereo not drawn) [Compound 8, Mefloquine HCl, reference compound]",IC50,[1],3.96 ± 0.58 µM
same,inhibition at 16.7 µM,[4],100%
same,SI to 3T3 host cells,3T3 host cells [5],2
same,Selectivity index (SI) compared to 3T3 cells,3T3 host cells [2],> 1.70
same,EC50,T. cruzi [6],6.1 µM
same,IC50,[3],0.62 ± 0.06 µM
same,Selectivity index (SI) compared to HEK-293 cells,HEK-293 cells; relative to T. b. brucei,7.97
same,Selectivity index (SI) compared to HEK-293 cells,HEK-293 cells; relative to T. cruzi,> 5.06
"CC[C@H]1CN2CCc3cc(OC)c(OC)cc3[C@@H]2C[C@@H]1C[C@H]1NCCc2cc(OC)c(OC)cc21 [Compound 10, Emetine dihydrochloride, reference compound]",inhibition at 16.7 µM,[4],100%
same,IC50,T. b. brucei [7],7.9 µM
"COc1c(C)c(O)c(C(=O)/C=C/c2ccccc2)c(O)c1C [Compound 13, (E)-1-(2,6-dihydroxy-4-methoxy-3,5-dimethylphenyl)-3-phenylprop-2-en-1-one]",activity against T. cruzi,[1],no significant activity
same,inhibition at 16.7 µM,[4],100%
same,IC50,T. b. brucei variant 221,21.1 ± 3.68 µM
same,reduction in infection of L. mexicana intracellular amastigotes,[8],96 ± 2%
same,Selectivity index (SI) compared to THP-1 cells,THP-1 cells,3.59
same,activity against T. b. brucei,[3],no significant activity
same,Selectivity index (SI) compared to HEK-293 cells,HEK-293 cells; relative to L. donovani DD8 intracellular amastigotes,~ 12
same,Selectivity index (SI) compared to HEK-293 cells,"HEK-293 cells; relative to L. donovani DD8 intracellular amastigotes, listed as Chalcone analogue (13)",11.87
same,IC50,[9],16.8 ± 4.35 µM
same,IC50,[10],5.65 ± 0.26 µM
"COc1ccc2c(c[n+](C)c3c4cc5c(cc4ccc23)OCO5)c1OC [Compound 15, Chelerythrine chloride, reference compound]",IC50,T. b. brucei [11],1.3 µM
same,IC50,[3],0.23 ± 0.04 µM
same,Selectivity index (SI) compared to HEK-293 cells,"HEK-293 cells; relative to T. b. brucei, listed as Chelerythrine chloride (15)",> 18.71
"CCCCCCC/C=C/C=C/C(=O)NCCc1ccc(O)cc1 [dodeca-2E,4E-dienoic acid 4-hydroxy-2-phenyl-ethylamide]",IC50,T. b. rhodesiense,2.26 ± 0.18 µM
same,IC50,T. cruzi [12],1.88 µM
same,IC50,[13],3.18 ± 0.2 µM
same,IC50,L. donovani,4.19 ± 1.64 µM
parmomycin,activity against L. donovani DD8,L. donovani DD8,negligible activity
